This assay has as its target T1, NaV1.3 (Homo sapiens, UniProt Q9NY46).
T1 construct: expressed in transfected cells
Kind of assay: VIPR optical membrane potential assay with electrical stimulation, HEK293 cells stably expressing NaV1.3. The conditions noted are these: compound activity for the NaV1.3 receptors. It counts as cell-based. The procedure:
Compounds of the invention are useful as antagonists of voltage-gated sodium ion channels. Antagonist properties of test compounds were assessed as follows. Cells expressing the NaV of interest were placed into microtiter plates. After an incubation period, the cells were stained with fluorescent dyes sensitive to the transmembrane potential. The test compounds were added to the microtiter plate. The cells were stimulated with either chemical or electrical means to evoke a NaV dependent membrane potential change from unblocked channels, which was detected and measured with trans-membrane potential-sensitive dyes. Antagonists were detected as a decreased membrane potential response to the stimulus. The optical membrane potential assay utilized voltage-sensitive FRET sensors described by Gonzalez and Tsien (See, Gonzalez, J. E. and R. Y. Tsien (1995) “Voltage sensing by fluorescence resonance energy transfer in single cells” Biophys J 69(4): 1272-80, and Gonzalez, J. E. and R. Y. Tsien (1997) “Improved indicators of cell membrane potential that use fluorescence resonance energy transfer” Chem Biol 4(4): 269-77) in combination with instrumentation for measuring fluorescence changes such as the Voltage/Ion Probe Reader (VIPR®) (See, Gonzalez, J. E., K. Oades, et al. (1999) “Cell-based assays and instrumentation for screening ion-channel targets” Drug Discov Today 4(9): 431-439).
The following is an example of how NaV1.3 inhibition activity is measured using the optical membrane potential method #2. Other subtypes are performed in an analogous mode in a cell line expressing the NaV of interest.
HEK293 cells stably expressing NaV1.3 are plated into 96-well microtiter plates. After an appropriate incubation period, the cells are stained with the voltage sensitive dyes CC2-DMPE/DiSBAC2(3) as follows.
2×CC2-DMPE=20 μM CC2-DMPE: 10 mM CC2-DMPE is vortexed with an equivalent volume of 10% pluronic, followed by vortexing in required amount of HBSS containing 10 mM HEPES. Each cell plate will require 5 mL of 2×CC2-DMPE. 50 μL of 2×CC2-DMPE is added to wells containing washed cells, resulting in a 10 μM final staining concentration. The cells are stained for 30 minutes in the dark at RT.
2×DISBAC2(3) with ABSC1=6 μM DISBAC2(3) and 1 mM ABSC1: The required amount of 10 mM DISBAC2(3) is added to a 50 ml conical tube and mixed with 1 μL 10% pluronic for each mL of solution to be made and vortexed together. Then HBSS/HEPES is added to make up 2× solution. Finally, the ABSC1 is added.
The 2×DiSBAC2(3) solution can be used to solvate compound plates. Note that compound plates are made at 2× drug concentration. Wash stained plate again, leaving residual volume of 50 μL. Add 50 μL/well of the 2×DiSBAC2(3) w/ ABSC1. Stain for 30 minutes in the dark at RT.
The electrical stimulation instrument and methods of use are described in ION Channel Assay Methods PCT/US01/21652, herein incorporated by reference. The instrument comprises a microtiter plate handler, an optical system for exciting the coumarin dye while simultaneously recording the coumarin and oxonol emissions, a waveform generator, a current- or voltage-controlled amplifier, and a device for inserting electrodes in well. Under integrated computer control, this instrument passes user-programmed electrical stimulus protocols to cells within the wells of the microtiter plate.
Use the current-controlled amplifier to deliver stimulation wave pulses for 3 s. Two seconds of pre-stimulus recording are performed to obtain the un-stimulated intensities. Five seconds of post-stimulation recording are performed to examine the relaxation to the resting state.
Data are analyzed and reported as normalized ratios of background-subtracted emission intensities measured in the 460 nm and 580 nm channels. Background intensities are then subtracted from each assay channel. […]

The structures appear in SMILES notation.

A word on the IC50: it is the concentration needed to halve the response being measured.

T1 sequence (Q9NY46 whole entry): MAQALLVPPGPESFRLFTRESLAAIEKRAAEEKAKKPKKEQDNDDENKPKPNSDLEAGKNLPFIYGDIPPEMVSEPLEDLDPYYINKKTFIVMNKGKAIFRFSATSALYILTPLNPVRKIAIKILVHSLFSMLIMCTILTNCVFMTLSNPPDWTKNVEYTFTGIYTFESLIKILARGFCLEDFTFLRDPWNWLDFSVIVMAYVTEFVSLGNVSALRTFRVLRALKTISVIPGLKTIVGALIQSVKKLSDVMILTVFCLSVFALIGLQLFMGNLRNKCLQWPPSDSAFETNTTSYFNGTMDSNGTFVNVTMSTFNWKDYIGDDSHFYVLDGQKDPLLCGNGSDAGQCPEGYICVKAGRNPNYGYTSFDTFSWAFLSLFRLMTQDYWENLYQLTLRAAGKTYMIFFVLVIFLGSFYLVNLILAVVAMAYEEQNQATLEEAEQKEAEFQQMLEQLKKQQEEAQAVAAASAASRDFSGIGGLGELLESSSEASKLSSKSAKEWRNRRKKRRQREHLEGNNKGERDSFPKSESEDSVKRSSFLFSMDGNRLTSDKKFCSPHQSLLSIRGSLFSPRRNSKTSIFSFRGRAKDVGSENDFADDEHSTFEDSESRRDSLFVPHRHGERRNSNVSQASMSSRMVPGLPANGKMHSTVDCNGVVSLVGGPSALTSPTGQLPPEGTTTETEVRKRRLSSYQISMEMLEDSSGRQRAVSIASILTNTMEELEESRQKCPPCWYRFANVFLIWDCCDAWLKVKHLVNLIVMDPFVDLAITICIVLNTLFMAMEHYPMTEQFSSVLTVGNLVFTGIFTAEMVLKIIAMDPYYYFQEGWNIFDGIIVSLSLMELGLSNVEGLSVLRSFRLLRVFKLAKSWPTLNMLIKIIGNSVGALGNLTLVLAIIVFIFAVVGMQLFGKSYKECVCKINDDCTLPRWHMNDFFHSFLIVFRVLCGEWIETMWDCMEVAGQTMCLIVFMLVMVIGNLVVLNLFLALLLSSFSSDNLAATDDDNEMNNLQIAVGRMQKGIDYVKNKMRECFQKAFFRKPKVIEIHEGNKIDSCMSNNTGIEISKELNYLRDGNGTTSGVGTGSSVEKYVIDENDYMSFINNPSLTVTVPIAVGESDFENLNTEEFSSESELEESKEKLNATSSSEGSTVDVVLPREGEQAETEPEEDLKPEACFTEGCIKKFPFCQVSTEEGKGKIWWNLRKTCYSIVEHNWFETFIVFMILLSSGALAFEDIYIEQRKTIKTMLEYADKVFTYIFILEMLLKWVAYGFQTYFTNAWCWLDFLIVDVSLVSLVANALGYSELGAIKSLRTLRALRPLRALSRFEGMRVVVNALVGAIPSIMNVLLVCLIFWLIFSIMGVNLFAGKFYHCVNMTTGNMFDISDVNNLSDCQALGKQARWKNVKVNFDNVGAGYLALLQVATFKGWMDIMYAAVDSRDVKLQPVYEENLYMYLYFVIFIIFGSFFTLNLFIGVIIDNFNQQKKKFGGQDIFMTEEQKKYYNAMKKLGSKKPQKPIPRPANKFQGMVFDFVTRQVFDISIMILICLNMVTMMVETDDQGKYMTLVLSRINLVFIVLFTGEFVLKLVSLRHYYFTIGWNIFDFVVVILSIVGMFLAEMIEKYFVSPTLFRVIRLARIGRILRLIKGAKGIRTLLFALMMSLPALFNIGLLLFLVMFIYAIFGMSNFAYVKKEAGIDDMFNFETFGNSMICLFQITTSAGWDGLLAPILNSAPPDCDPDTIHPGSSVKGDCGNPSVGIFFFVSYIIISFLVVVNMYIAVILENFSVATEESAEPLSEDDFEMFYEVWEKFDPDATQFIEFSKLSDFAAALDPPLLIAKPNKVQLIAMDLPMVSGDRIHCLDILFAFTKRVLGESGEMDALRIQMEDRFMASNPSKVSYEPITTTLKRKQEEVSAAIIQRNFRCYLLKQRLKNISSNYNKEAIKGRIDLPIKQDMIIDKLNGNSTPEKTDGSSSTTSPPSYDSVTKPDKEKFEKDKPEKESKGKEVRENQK

Take `COC(=O)NS(=O)(=O)c1ccc(NC(=O)C(C)Oc2cccc(Cl)c2Cl)cc1` (stereo in doubt) [Compound 58, (R)-methyl 4-(2,3-dichlorophenoxy)propanamido) phenylsulfonylcarbamate]: the IC50 was over 5 µM.

In the case of `COC(=O)NS(=O)(=O)c1ccc(NC(=O)CCn2ccc3cccc(Cl)c32)cc1` [Compound 1], the IC50 was over 5 µM.

With `COC(=O)NS(=O)(=O)c1ccc(NC(=O)NC2Cc3ccccc3C2)cc1` [Compound 2], the IC50 was over 5 µM.

Turning to `COC(=O)NS(=O)(=O)c1ccc(NC(=O)COc2ccc(F)c(Cl)c2)cc1` [Compound 3], the IC50 was over 5 µM.

For the compound `NC(=O)NS(=O)(=O)c1ccc(NC(=O)CCn2ccc3cc(Cl)ccc32)cc1` [Compound 4], the 50% inhibitory concentration (IC50) is over 5 µM.

For `COC(=O)NS(=O)(=O)c1ccc(NC(=O)[C@H](CC(C)C)N2CCCc3cc(Cl)ccc32)cc1` [Compound 5], the IC50 was over 5 µM.

With `COC(=O)NS(=O)(=O)c1ccc(NC(=O)[C@@H](C)N2CCCc3cc(Cl)ccc32)cc1` [Compound 6, (R)-methyl 4-(2-(6-chloro-3,4-dihydroquinolin-1(2H)-yl)propanamido)phenylsulfonylcarbamate], the IC50 was under 2 µM.

As for `COC(=O)NS(=O)(=O)c1ccc(NC(=O)Cn2ccc3ccc(OC)cc32)cc1` [Compound 7], the IC50 was over 5 µM.

As to `COC(=O)NS(=O)(=O)c1ccc(NC(=O)Cn2ccc3cc(F)c(F)cc32)cc1` [Compound 8], the IC50 was over 5 µM.

Regarding `COC(=O)NS(=O)(=O)c1ccc(NC(=O)c2ccccc2)cc1` [Compound 9], the concentration for half-maximal inhibition (IC50) is over 5 µM.

`COC(=O)NS(=O)(=O)c1ccc(NC(=O)[C@@H](C(C)C)N2CCCc3cc(Cl)ccc32)cc1` [Compound 10]: the IC50 lay in the range of 2 to 5 µM.

In the case of `C[C@H](C(=O)Nc1ccc(S(=O)(=O)NC(=O)C2CCCC2)cc1)n1ccc2c(F)cccc21` [Compound 11, (R)—N-(4-(2-(4-fluoro-1H indol-1-yl)propanamido)phenylsulfonyl)cyclopentanecarboxamide], the IC50 was over 5 µM.

On to `COC(=O)NS(=O)(=O)c1ccc(NC(=O)Cn2cc(C)c3ccccc32)cc1` [Compound 12], for which the IC50 is over 5 µM.

For `C[C@H](C(=O)Nc1ccc(S(=O)(=O)NC(=O)CC(C)(C)C)cc1)n1ccc2c(F)cccc21` [Compound 13], the IC50 was over 5 µM.

As to `COC(=O)NS(=O)(=O)c1ccc(NC(=O)Cn2ccc3cc(C)ccc32)cc1` [Compound 14], the IC50 is over 5 µM.

Consider `COC(=O)NS(=O)(=O)c1ccc(NC(=O)c2cc3c(F)cccc3[nH]2)cc1` [Compound 15], for which the half-maximal inhibitory concentration (IC50) is over 5 µM.

Regarding `COC(=O)NS(=O)(=O)c1ccc(NC(=O)[C@@H](C)n2ccc3ccc(Cl)cc32)cc1` [Compound 16], the IC50 is 2 to 5 µM.

Consider `COC(=O)NS(=O)(=O)c1ccc(NC(=O)[C@H](C)n2ccc3c(F)cccc32)cc1` [Compound 17], for which the IC50 is over 5 µM.

For `COC(=O)NS(=O)(=O)c1ccc(NC(=O)c2cc3c(F)cc(F)cc3[nH]2)cc1` [Compound 18], the 50% inhibitory concentration (IC50) is over 5 µM.

Consider `COC(=O)NS(=O)(=O)c1ccc(NC(=O)Cn2cc(C#N)c3ccccc32)cc1` [Compound 19], for which the IC50 is over 5 µM.

Turning to `COC(=O)NS(=O)(=O)c1ccc(NC(=O)C(C)n2ccc3cc(Cl)ccc32)cc1` (stereo not drawn) [Compound 20], the IC50 fell in the range of 2 to 5 µM.

`C[C@H](C(=O)Nc1ccc(S(=O)(=O)NC(=O)C2CC2)cc1)n1ccc2c(F)cccc21` [Compound 21]: the IC50 was over 5 µM.

For `COC(=O)NS(=O)(=O)c1ccc(NC(=O)[C@@H](C)N2CCCc3cc(Cl)c(C)cc32)cc1` [Compound 22], the IC50 is under 2 µM.

For `COC(=O)NS(=O)(=O)c1ccc(NC(=O)[C@@H](CC(C)C)n2ccc3c(F)cccc32)cc1` [Compound 23, (R)-methyl 4-(2-(4-fluoro-1H-indol-1-yl)-4-methylpentanamido) phenylsulfonylcarbamate], the IC50 is under 2 µM.

The record behind these values is patent US8883766B2, “Ion channel modulators and methods of use” (Vertex Pharmaceuticals Incorporated, priority 2007, dated 2014).
